Measured values taken from ChEMBL document CHEMBL1140892, “Synthesis and evaluation of rifabutin analogs against Mycobacterium avium and H(37)Rv, MDR and NRP Mycobacterium tuberculosis” (Bioorg Med Chem, 2009).
In brackets after ≈: the same amount, converted by molar mass. Activity calls are given as the source filed them. The rule behind the calls is not given here.

How the values were obtained:
[1] = system: Mycobacterium tuberculosis; test: Antimycobacterial activity against isoniazid, rifampicin and ethambutol-resistant Mycobacterium tuberculosis after 7 days by resazurin method; format: functional; conditions: 168 h
[2] = system: Mycobacterium tuberculosis; test: Antimycobacterial activity against isoniazid, rifampicin and streptomycin-resistant Mycobacterium tuberculosis after 7 days by resazurin method; format: functional; conditions: 168 h
[3] = system: Mycobacterium tuberculosis; test: Antimycobacterial activity against multidrug-resistant Mycobacterium tuberculosis infected in BALB/c mouse assessed as reduction of bacterial load in lungs at 5 mg/kg/day, intragastrically after 1 month relative to control; format: functional, organism-based

Compound	MIC [1]	MIC [2]	Activity [3]
C=CCCCCCCCCC(=O)N1C2=C3NC(=O)/C(C)=C\C=C\[C@H](C)[C@H](O)[C@@H](C)[C@@H](O)[C@@H](C)[C@H](OC(C)=O)[C@H](C)[C@@H](OC)/C=C/O[C@@]4(C)Oc5c(C)c(O)c(c(c5C4=O)C2=NC12CCN(CC(C)C)CC2)C3=O	6 µg/mL (≈ 5.92 µM)	6 µg/mL (≈ 5.92 µM)	Active
CO[C@H]1/C=C/O[C@@]2(C)Oc3c(C)c(O)c4c(c3[C@H]2O)C2=NC3(CC[N+]([O-])(CC(C)C)CC3)NC2=C(NC(=O)/C(C)=C\C=C\[C@H](C)[C@H](O)[C@@H](C)[C@@H](O)[C@@H](C)[C@H](OC(C)=O)[C@@H]1C)C4=O (stereo partly drawn)	> 10 µg/mL	> 10 µg/mL	–
CO[C@H]1/C=C/O[C@@]2(C)Oc3c(C)c(O)c4c(c3C2=O)C2=NC3(CC[N+]([O-])(CC(C)C)CC3)NC2=C(NC(=O)/C(C)=C\C=C\[C@H](C)[C@H](O)[C@@H](C)[C@@H](O)[C@@H](C)[C@H](O)[C@@H]1C)C4=O (stereo partly drawn)	> 10 µg/mL	> 10 µg/mL	–
CO[C@H]1/C=C/O[C@@]2(C)Oc3c(C)c(O)c4c(c3[C@H]2O)C2=NC3(CCN(CC(C)C)CC3)N(C(C)=O)C2=C(NC(=O)/C(C)=C\C=C\[C@H](C)[C@H](O)[C@@H](C)[C@@H](O)[C@@H](C)[C@H](OC(C)=O)[C@@H]1C)C4=O	8 µg/mL (≈ 8.98 µM)	8 µg/mL (≈ 8.98 µM)	–
CO[C@H]1/C=C/O[C@@]2(C)Oc3c(C)c(O)c4c(c3C2=O)C2=NC3(CC[N+]([O-])(CC(C)C)CC3)NC2=C(NC(=O)/C(C)=C\C=C\[C@H](C)[C@H](O)[C@@H](C)[C@@H](O)[C@@H](C)[C@H](OC(C)=O)[C@@H]1C)C4=O (stereo partly drawn)	> 10 µg/mL	> 10 µg/mL	–
CO[C@H]1/C=C/O[C@@]2(C)Oc3c(C)c(O)c4c(c3C2=O)C2=NC3(CCN(CC(C)C)CC3)NC2=C(NC(=O)/C(C)=C\C=C\[C@H](C)[C@H](O)[C@@H](C)[C@@H](O)[C@@H](C)[C@H](OC(C)=O)[C@@H]1C)C4=O [RIFABUTIN]	> 10 µg/mL	> 10 µg/mL	Active
CCCCCCCCCCCCCCCC(=O)N1C2=C3NC(=O)/C(C)=C\C=C\[C@H](C)[C@H](O)[C@@H](C)[C@@H](O)[C@@H](C)[C@H](OC(C)=O)[C@H](C)[C@@H](OC)/C=C/O[C@@]4(C)Oc5c(C)c(O)c(c(c5C4=O)C2=NC12CCN(CC(C)C)CC2)C3=O	> 10 µg/mL	> 10 µg/mL	–
CO[C@H]1/C=C/O[C@@]2(C)Oc3c(C)c(O)c4c(c3C2=O)C2=NC3(CCN(CC(C)C)CC3)NC2=C(NC(=O)/C(C)=C\C=C\[C@H](C)[C@H](O)[C@@H](C)[C@@H](O)[C@@H](C)[C@H](O)[C@@H]1C)C4=O	> 10 µg/mL	> 10 µg/mL	–
CO[C@H]1/C=C/O[C@@]2(C)Oc3c(C)c(O)c4c(c3C2=O)C2=NC3(CCN(CC(C)C)CC3)N(C(C)=O)C2=C(NC(=O)/C(C)=C\C=C\[C@H](C)[C@H](O)[C@@H](C)[C@@H](O)[C@@H](C)[C@H](OC(C)=O)[C@@H]1C)C4=O	> 10 µg/mL	> 10 µg/mL	Active
CO[C@H]1/C=C/O[C@@]2(C)Oc3c(C)c(O)c4c(c3[C@H]2O)C2=NC3(CCN(CC(C)C)CC3)NC2=C(NC(=O)/C(C)=C\C=C\[C@H](C)[C@H](O)[C@@H](C)[C@@H](O)[C@@H](C)[C@H](O)[C@@H]1C)C4=O	> 10 µg/mL	> 10 µg/mL	–
